Measurements: ChEMBL document CHEMBL4251642 (Eur J Med Chem, 2018)
Active and inactive are the calls of the source. The rule behind the calls is not given here.

What was measured:
Influenza A virus [1] = test: Antiviral activity against Influenza A virus (A/WSN/1933(H1N1)) infected in BALB/c mouse assessed as mouse survival at 0.96 umol/day, po for 5 consecutive days measured on day 14 post dose; format: functional
[2] = Stability in rabbit serum at 37 degC after 24 hrs by HPLC-ESI-MS analysis; format: ADME, cell-free, Oryctolagus cuniculus
[3] = Drug metabolism in rabbit serum assessed as (1S,2S,3R,4R)-3-[(S)-1-acetamido-2-ethylbutyl]-4-guanidino-2-[(3-hydroxypropyl)carbamoyloxy]cyclopentane-1-carboxylic acid formation at 37 degC after 24 hrs by HPLC-ESI-MS analysis; format: ADME, cell-free, Oryctolagus cuniculus
Influenza A virus [4] = test: Antiviral activity against Influenza A virus (A/WSN/1933(H1N1)) infected in MDCK cells assessed as inhibition of virus-induced cytopathic effect after 48 hrs by CellTiter96 Aqueous non-radioactive cell proliferation assay; format: functional, organism-based
[5] = Cytotoxicity against MDCK cells after 48 hrs by CellTiter96 Aqueous non-radioactive cell proliferation assay; format: cell-based, Canis lupus familiaris; settings: dog
[6] = target: Neuraminidase (Influenza A virus (strain A/Wilson-Smith/1933 H1N1) (Influenza A virus(strain A/WS/1933 H1N1)), UniProt P03470)
Influenza A virus [7] = test: Antiviral activity against Influenza A virus (A/WSN/1933(H1N1)) infected in BALB/c mouse assessed as mouse survival at 0.72 umol/day, po for 5 consecutive days measured on day 14 post dose; format: functional, organism-based
[8] = Drug metabolism in rabbit serum assessed as 3-[(1S,2R,3R,5S)-2-[(S)-1-acetamido-2-ethylbutyl]-5-carboxy-3-guanidinocyclopentoxycarbonyl]aminopropan-1-aminium trifluoroacetate formation at 37 degC after 24 hrs by HPLC-ESI-MS analysis; format: ADME, cell-free, Oryctolagus cuniculus
[9] = target: Neuraminidase (Influenza A virus (strain A/Wilson-Smith/1933 H1N1) (Influenza A virus(strain A/WS/1933 H1N1)), UniProt P03470); remark: listed apart in the source
[10] = target: Neuraminidase (Influenza A virus (A/Memphis/1/1971(H3N2)), UniProt P03471); format: cell-based, Influenza A virus (A/Brisbane/10/2007(H3N2)), HEK293
[11] = Drug level in rabbit serum treated with (1S,2S,3R,4R)-3-[(S)-1-Acetamido-2-ethylbutyl]-2-[[3-((E)-3-(3,4-dihydroxyphenyl)acryloyloxy)propyl]carbamoyloxy]-4-guanidinocyclopentane-1-carboxylic acid at 37 degC after 24 hrs by HPLC-ESI-MS analysis; format: ADME, cell-free, Oryctolagus cuniculus

Neuraminidase (Influenza A virus (strain A/Wilson-Smith/1933 H1N1) (Influenza A virus(strain A/WS/1933 H1N1)), UniProt P03470), sequence (P03470 whole entry): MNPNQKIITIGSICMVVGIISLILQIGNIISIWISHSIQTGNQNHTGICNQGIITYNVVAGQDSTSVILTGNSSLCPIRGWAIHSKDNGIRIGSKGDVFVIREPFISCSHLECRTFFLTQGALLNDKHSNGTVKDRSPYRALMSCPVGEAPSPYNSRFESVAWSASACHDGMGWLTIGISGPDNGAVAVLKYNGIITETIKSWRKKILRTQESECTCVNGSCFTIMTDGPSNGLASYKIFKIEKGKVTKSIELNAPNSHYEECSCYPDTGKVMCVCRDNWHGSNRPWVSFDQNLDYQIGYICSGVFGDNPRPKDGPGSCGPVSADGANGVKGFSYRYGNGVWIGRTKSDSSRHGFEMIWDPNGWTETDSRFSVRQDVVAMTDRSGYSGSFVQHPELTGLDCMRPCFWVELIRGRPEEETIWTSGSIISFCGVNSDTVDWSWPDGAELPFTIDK
Neuraminidase (Influenza A virus (A/Memphis/1/1971(H3N2)), UniProt P03471), sequence (P03471 whole entry): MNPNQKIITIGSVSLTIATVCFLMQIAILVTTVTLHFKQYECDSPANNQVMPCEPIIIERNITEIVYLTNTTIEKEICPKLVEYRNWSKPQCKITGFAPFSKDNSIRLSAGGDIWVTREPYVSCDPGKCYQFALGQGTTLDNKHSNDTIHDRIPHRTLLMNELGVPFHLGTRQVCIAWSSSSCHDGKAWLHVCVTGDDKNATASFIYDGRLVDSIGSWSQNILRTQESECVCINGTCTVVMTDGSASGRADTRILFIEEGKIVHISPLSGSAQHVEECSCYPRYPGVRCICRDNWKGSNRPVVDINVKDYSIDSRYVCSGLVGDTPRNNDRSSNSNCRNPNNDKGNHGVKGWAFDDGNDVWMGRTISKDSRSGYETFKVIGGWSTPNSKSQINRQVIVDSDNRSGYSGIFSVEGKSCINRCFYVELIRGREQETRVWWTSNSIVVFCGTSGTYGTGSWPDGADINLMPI

SMILES | Survival (Influenza A virus [1]) | Stability [2] | Drug metabolism [3] | EC50 (Influenza A virus [4]) | CC50 at 48 h [5] | IC50 [6] | Activity (Influenza A virus [7]) | Drug metabolism [8] | IC50 [9] | IC50 [10] | Drug uptake [11] | Activity (Influenza A virus [1])
CCC(CC)[C@H](NC(C)=O)[C@@H]1[C@H](OC(=O)NCCCNC(=O)/C=C/c2ccc(O)c(O)c2)[C@@H](C(=O)O)C[C@H]1NC(=N)N | 100% | Stable | Metabolite_Detected | 1.56 nM | > 100000 nM | 0.44 nM | Active | Metabolite_Notdetected | 1.8 nM | – | – | –
CCC(CC)[C@H](NC(C)=O)[C@@H]1[C@H](O)[C@@H](C(=O)O)C[C@H]1NC(=N)N [PERAMIVIR ANHYDROUS] | – | – | – | 6.68 nM | > 100000 nM | 0.48 nM | – | – | 0.4 nM | 2 nM | – | –
CCC(CC)[C@H](NC(C)=O)[C@@H]1[C@H](OC(=O)NCCCN)[C@@H](C(=O)O)C[C@H]1NC(=N)N | – | – | – | 2.58 nM | > 100000 nM | 0.94 nM | – | – | – | – | – | –
CCC(CC)[C@H](NC(C)=O)[C@@H]1[C@H](OC(=O)NCCCOC(=O)/C=C/c2ccc(O)c(O)c2)[C@@H](C(=O)O)C[C@H]1NC(=N)N | – | – | – | 1.68 nM | > 100000 nM | 1.05 nM | Active | – | 0.9 nM | 27.2 nM | – | –
CCC(CC)OC1C=C(C(=O)O)C[C@H](N)[C@H]1NC(C)=O (some centres undefined) | – | – | – | 16.6 nM | > 100000 nM | – | – | – | – | – | – | –
CCC(CC)[C@H](NC(C)=O)[C@@H]1[C@H](OC(=O)NCCCO)[C@@H](C(=O)O)C[C@H]1NC(=N)N | – | – | – | 2.22 nM | > 100000 nM | 0.64 nM | – | – | – | – | 26% | –
CCC(CC)[C@H](NC(C)=O)[C@@H]1[C@H](OC(=O)NCCCOCCCc2ccc(O)c(O)c2)[C@@H](C(=O)O)C[C@H]1NC(=N)N | 50% | – | – | 3.5 nM | > 100000 nM | 0.67 nM | – | – | – | – | – | –
CCOC(=O)C1=C[C@@H](OC(CC)CC)[C@H](NC(C)=O)[C@@H](N)C1 [OSELTAMIVIR] | – | – | – | – | – | – | – | – | – | – | – | Active
